From PMC6364417, “Kinase inhibitor library screening identifies synergistic drug combinations effective in sensitive and resistant melanoma cells” (Journal of Experimental & Clinical Cancer Research : CR, 2019)

Key:
Experiment in all cases: Kinase inhibitor library screening, PrestoBlue cell viability, 1 or 10 μM, 72 h
[1] = tested on: A375-XP cells (Vemurafenib-resistant); details: A375 XP, 72 h; for cell viability, A375 XP, 1μΜ / cell viability, A375 XP, 10μΜ: in %
[2] = tested on: IGR37-GP cells (Dabrafenib-resistant); details: IGR37 GP, 72 h; for cell viability, IGR37 GP, 1μΜ: in %
[3] = tested on: 501Mel-GP cells (Dabrafenib-resistant); details: 501Mel GP, 72 h; for cell viability, 501Mel GP, 1μΜ / cell viability, 501Mel GP, 10μΜ: in %
[4] = tested on: 501Mel-XP cells (Vemurafenib-resistant); details: 501Mel XP, 72 h; for cell viability, 501Mel XP, 1μΜ / cell viability, 501Mel XP, 10μΜ: in %
[5] = tested on: A375 cells (parental); details: A375 Parental, 72 h; for cell viability, A375 Parental, 1μΜ / cell viability, A375 Parental, 10μΜ: in %
[6] = tested on: A375-GP cells (Dabrafenib-resistant); details: A375 GP, 72 h; for cell viability, A375 GP, 1μΜ / cell viability, A375 GP, 10μΜ: in %
[7] = tested on: IGR37 cells (parental); details: IGR37 Parental, 72 h; for cell viability, IGR37 Parental, 1μΜ / cell viability, IGR37 Parental, 10μΜ: in %
[8] = tested on: IGR37-XP cells (Vemurafenib-resistant); details: IGR37 XP, 72 h; for cell viability, IGR37 XP, 1μΜ: in %
[9] = tested on: 501Mel cells (parental); details: 501Mel Parental, 72 h; for cell viability, 501Mel Parental, 1μΜ / cell viability, 501Mel Parental, 10μΜ: in %
In short: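 Treatment: 72 h with inhibitor. Detection: PrestoBlue, plate reader. Output: viability as % untreated control. Replicates: duplicate minimum. Lines: parental plus Vemurafenib- or Dabrafenib-resistant derivatives.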

Row | SMILES | cell viability, A375 XP, 1μΜ ([1]; 1μΜ) | cell viability, A375 XP, 10μΜ ([1]; 10μΜ) | cell viability, IGR37 GP, 10μΜ ([2]; 10μΜ) [%] | cell viability, IGR37 GP, 1μΜ ([2]; 1μΜ) | cell viability, 501Mel GP, 1μΜ ([3]; 1μΜ) | cell viability, 501Mel GP, 10μΜ ([3]; 10μΜ) | cell viability, 501Mel XP, 1μΜ ([4]; 1μΜ) | cell viability, 501Mel XP, 10μΜ ([4]; 10μΜ) | cell viability, A375 Parental, 1μΜ ([5]; 1μΜ) | cell viability, A375 Parental, 10μΜ ([5]; 10μΜ) | cell viability, A375 GP, 1μΜ ([6]; 1μΜ) | cell viability, A375 GP, 10μΜ ([6]; 10μΜ) | cell viability, IGR37 Parental, 1μΜ ([7]; 1μΜ) | cell viability, IGR37 Parental, 10μΜ ([7]; 10μΜ) | cell viability, IGR37 XP, 10μΜ ([8]; 10μΜ) [%] | cell viability, IGR37 XP, 1μΜ ([8]; 1μΜ) | cell viability, 501Mel Parental, 1μΜ ([9]; 1μΜ) | cell viability, 501Mel Parental, 10μΜ ([9]; 10μΜ) | further results
1 | Cc1ncc(-c2ccnc(Nc3ccc(S(C)(=O)=O)cc3)n2)n1C(C)C [AZD5438] |  |  |  |  |  |  |  |  |  |  |  |  |  |  |  |  |  |  | cell viability (kinase inhibitor library screening) ([1]; 1μΜ): 105.8%; cell viability (kinase inhibitor library screening) ([1]; 10μΜ): 110.3%; cell viability (kinase inhibitor library screening) ([2]; 1μΜ): 99.3%; cell viability (kinase inhibitor library screening) ([2]; 10μΜ): 97.8%; cell viability (kinase inhibitor library screening) ([3]; 1μΜ): 106.0%; cell viability (kinase inhibitor library screening) ([3]; 10μΜ): 93.9%; cell viability (kinase inhibitor library screening) ([4]; 1μΜ): 99.0%; cell viability (kinase inhibitor library screening) ([4]; 10μΜ): 80.3%; cell viability (kinase inhibitor library screening) ([5]; 10μΜ): 103.7%; cell viability (kinase inhibitor library screening) ([5]; 1μΜ): 106.4%; cell viability (kinase inhibitor library screening) ([6]; 1μΜ): 99.9%; cell viability (kinase inhibitor library screening) ([6]; 10μΜ): 102.9%; cell viability (kinase inhibitor library screening) ([7]; 1μΜ): 103.3%; cell viability (kinase inhibitor library screening) ([7]; 10μΜ): 110.8%; cell viability (kinase inhibitor library screening) ([8]; 1μΜ): 106.4%; cell viability (kinase inhibitor library screening) ([8]; 10μΜ): 82.4%; cell viability (kinase inhibitor library screening) ([9]; 1μΜ): 102.8%; cell viability (kinase inhibitor library screening) ([9]; 10μΜ): 103.6%
2 | Nc1ncnc2c1c(-c1cccc(OCc3ccccc3)c1)cn2C1CC(CN2CCCC2)C1 (stereo not drawn) [NVP-ADW742] | 90.5 | 13.9 | 1.6 | 83.7 | 91.7 | -0.2 | 82.0 | -0.346 | 89.6 | 25.2 | 57.9 | 20.2 | 110.2 | 0.537 | 1.2 | 78.5 | 80.8 | 0.529 | 
3 | C=CC(=O)Nc1cccc(Sc2nc(Nc3ccc(N4CCN(C)CC4)cc3)ncc2Cl)c1 [WZ8040] | 104.2 | 0.5 | 2.1 | 90.2 |  | 0.0662 | 96.4 | 0.0442 | 97.5 | 1.4 | 98.2 | 1.6 |  | 0.328 | 1.2 | 79.2 | 98.5 | -0.212 | 
4 | COc1cc2ncnc(Nc3cccc(Cl)c3)c2cc1OC [AG-1478 (Tyrphostin AG-1478)] | 99.5 | 98.9 | 86.3 | 88.5 | 102.7 | 55.4 | 86.2 | 48.5 |  | 94.0 | 91.6 | 90.4 | 96.0 | 98.8 | 46.3 | 76.6 | 96.5 | 70.7 | 
